Patent US8791079B2, “Methods for treating heart failure by inhibiting the mitochondrial sodium-calcium exchanger (mNCE)” (priority 2009, dated 2014)
Several values for one entry are separate records, joined by “and”; a condition that tells them apart may be missing. Identical values can stand only once. Marks after values point to notes of the source that are not given here.

How the values were obtained:
[1] = tested on: Guinea pig ventricular myocytes; test: Mitochondrial NADH autofluorescence in isolated myocytes during 1-Hz stimulation; type: cell-based; conditions: 1-μM ouabain + 100-nM isoproterenol, without (ouabain) or with 1 μM CGP-37157; for NADH level before stimulation: before 1-Hz stimulation; for NADH level by the end of stimulation: end of 1-Hz stimulation (three minutes)
Protocol: (§1) Guinea pig ventricular myocytes were isolated by enzymatic digestion as described previously. O'Rourke, B., et al., “Oscillations of membrane current and excitability driven by metabolic oscillations in heart cells,” Science, 265(5174):962-966 (Aug. 12, 1994). Cells were suspended in Dulbecco's Modification of Eagle's Medium (DMEM) supplemented with 5% fetal bovine serum, 1% penicillin/streptomycin, and 15 mmol/L HEPES, pH 7.4, and stored in a 5% CO2 incubator at 37° C.
Cytosolic Ca^2+ ([Ca^2+]c), mitochondrial Ca^2+ ([Ca^2+]m), and [Na^+]i were measured with the fluorescent indicators indo-1, rhod-2, and sodium-binding benzofuran isophthalate (SBFI), respectively (Invitrogen, Carlsbad, Calif.), and mitochondrial NADH was measured as the cellular autofluorescence with 360-nm excitation/450-nm emission. Indo-1 was loaded into cell with the membrane permeable form, indo-1 AM. To minimize indo-1 loading into the mitochondrial compartment, cells were briefly incubated with indo-1 AM at room temperature for 20 min. Rhod-2 and SBFI experiments were carried out as previously described. Maack et al., supra, Liu and O'Rourke, supra. Cytoplasmic rhod-2 was eliminated by using rhod-2-free patch pipettes. Maack et al., supra, Liu and O'Rourke, supra. The ROS-sensitive fluorescent probe 5-(−6)-chloromethyl-2′,7′-dichlorohydrofluorescein diacetate (CM-H2DCFDA) was used to monitor the extent of oxidative stress, as previously described. Aon, M. A., et al., “Synchronized whole cell oscillations in mitochondrial metabolism triggered by a local release of reactive oxygen species in cardiac myocytes,” J. Biol. Chem., 278(45):44735-44744 (Nov. 7, 2003). This probe is primarily localized in the mitochondrial matrix, see Aon et al., supra, and is oxidized by hydrogen peroxide to yield fluorescent CM-DCF, thus indirectly reporting mitochondrial superoxide production.
Isolated ventricular myocytes were loaded into a heated field-stimulation chamber (Warner Instruments, Hamden, Conn.) at 37° C. on the stage of a fluorescence microscope (Nikon Eclipse TE300, Nikon Instruments, Inc., Melville, N.Y.). The myocytes were first superfused with control Tyrode's solution containing: NaCl (130 mmol/L), KCl (5 mmol/L), MgCl2 (1 mmol/L), Na-HEPES (10 mmol/L), CaCl2 (2 mmol/L), glucose (10 mmol/L), at pH 7.4. After one minute of recording in the absence of electrical stimulation in control buffer, 1-μM ouabain and 100-nM isoproterenol, with or without 1 μM CGP-37157, were added to buffer. After another five minutes of recording, myocytes were field-stimulated at 1 Hz for three minutes followed by a two-minute recording after returning to the resting state. To record [Ca^2+]m and action potentials, myocytes were whole-cell patch-clamped at 37° C. […]

[2] = tested on: Guinea pig hearts; test: Arrhythmia score and ventricular fibrillation in isolated perfused hearts; conditions: without or with CGP-37157; for Incidence of VF: hearts with VF / hearts, ouabain treatment and isoproterenol stimulation; for arrhythmia score: ten-minute ouabain treatment (0.25 μM), modified Score A, 0-4
Description: Guinea pig hearts were quickly excised under anesthesia and mounted on a modified Langendorff apparatus attached to a Powerlab system (AD Instruments, Colorado Springs, Colo.). Hearts were perfused with gassed (95/5% O2/CO2) control buffer containing: 118-mM NaCl, 24-mM NaHCO3, 1.2-mM KH2PO4, 4.75-mM KCl, 1.2-mM MgSO4, 2.0-mM CaCl2, and 10-mM glucose. A buffer-filled latex balloon (Harvard apparatus) was inserted through the mitral valve into the left ventricle. Hearts were suspended in a buffer-filled heating chamber maintained at 37° C. and two electrodes were placed into the bath for volume-conducted electrocardiogram recordings. Heart rate, left ventricular developed pressure (LVDP), maximal rates of contraction and relaxation (±dP/dt), oxygen consumption, and electrocardiograms (ECG) were recorded on a computer. After a ten-minute equilibration period, hearts were subjected to the following protocol: ten-minute baseline recording while the heart was perfused with control buffer, ten-minute recording while 0.25-μM ouabain with or without 1 μM CGP-37157, and sixty-minute recording while hearts were stimulated with 25-nM isoproterenol. The measurements of hemodynamic parameters were determined by taking the average during the last two minutes before ouabain treatment (baseline) and for two minutes during the maximal effect on LVDP of either ouabain or isoproterenol.
Arrhythmias were characterized in accordance with the Lambeth Conventions, see Walker, M. J., et al., Cardiovasc. Res., 22(7):447-455 (July 1988), and scores were tabulated for the ten-minute period of ouabain treatment using modified Score A as described by Curtis, M. J. and Walker, M. J., “Quantification of arrhythmias using scoring systems: an examination of seven scores in an in vivo model of regional myocardial ischaemia,” Cardiovasc. Res., 22(9):656-665 (September 1988). Briefly, each heart was given a score based on the following criteria: 0: <50 ventricular premature beats; 1: 50-499 ventricular premature beats; 2: >500 ventricular premature beats and/or one episode of spontaneously reverting ventricular tachycardia or ventricular fibrillation; 3: more than one episode of spontaneously reverting ventricular tachycardia or fibrillation (<2 min); 4: >2 min of ventricular tachycardia or fibrillation.

[3] = tested on: Guinea pig ventricular myocytes; test: ROS / oxidative stress (CM-H2DCFDA, CM-DCF oxidation) in isolated myocytes; type: cell-based; conditions: 100-nM isoproterenol with 1-μM ouabain, without or with 1-μM CGP-37157; 1-Hz stimulation
Protocol: as §1
Cytosolic Ca^2+ ([Ca^2+]c), mitochondrial Ca^2+ ([Ca^2+]m), and [Na^+]i were measured with the fluorescent indicators indo-1, rhod-2, and sodium-binding benzofuran isophthalate (SBFI), respectively (Invitrogen, Carlsbad, Calif.), and mitochondrial NADH was measured as the cellular autofluorescence with 360-nm excitation/450-nm emission. Indo-1 was loaded into cell with the membrane permeable form, indo-1 AM. To minimize indo-1 loading into the mitochondrial compartment, cells were briefly incubated with indo-1 AM at room temperature for 20 min. Rhod-2 and SBFI experiments were carried out as previously described. Maack et al., supra, Liu and O'Rourke, supra. […]
Isolated ventricular myocytes were loaded into a heated field-stimulation chamber (Warner Instruments, Hamden, Conn.) at 37° C. on the stage of a fluorescence microscope (Nikon Eclipse TE300, Nikon Instruments, Inc., Melville, N.Y.). […]

SMILES	NADH level before stimulation [1] [%]	NADH level by the end of stimulation [1] [%]	Incidence of VF [2]	Incidence of VF ([2]; listed as CGP)	arrhythmia score [2]	oxidation of CM-DCF (oxidative stress) [3]
O=C1CSC(c2ccccc2Cl)c2cc(Cl)ccc2N1 (centres unmarked) [CGP-37157, 7-chloro-5-(2-chlorophenyl)-1,5-dihydro-4,1-benzothiazepin-2(3H)-one]	78.3±3.2	80.6±2.5	2 out of 7	2/7*	1.1±0.4	abolished the increase in oxidative stress induced by ouabain
C[C@@H]1O[C@@H](O[C@H]2C[C@@H](O)[C@]3(CO)[C@H]4[C@H](O)C[C@]5(C)[C@@H](C6=CC(=O)OC6)CC[C@]5(O)[C@@H]4CC[C@]3(O)C2)[C@H](O)[C@H](O)[C@H]1O [ouabain, 1β,3β,5β,11α,14,19-Hexahydroxycard-20(22)-enolide 3-(6-deoxy-α-L-mannopyranoside, reference compound]	81.7±1.8	52.3±5.7	7 out of 8 and 7/8		2.7±0.5	higher rates of oxidation of CM-DCF
